The results in this text go back to PubChem BioAssay AID832 (PCMD, 2007).

This assay concerns the target Cathepsin G (Homo sapiens) (UniProt P08311). Briefly: IC50 of CTSG protease blockers – biochemical, confirmation, dose response (AID 832). The settings on record: purified cathepsin G enzyme activity, signal read-out.

Results filed as inconclusive are left out. Active and inactive are the calls of the source. The rule behind the calls is not given here. Where only a bound is given, the exact number is not on record here.

Cathepsin G (Homo sapiens), sequence (P08311 21-244 limits assumed): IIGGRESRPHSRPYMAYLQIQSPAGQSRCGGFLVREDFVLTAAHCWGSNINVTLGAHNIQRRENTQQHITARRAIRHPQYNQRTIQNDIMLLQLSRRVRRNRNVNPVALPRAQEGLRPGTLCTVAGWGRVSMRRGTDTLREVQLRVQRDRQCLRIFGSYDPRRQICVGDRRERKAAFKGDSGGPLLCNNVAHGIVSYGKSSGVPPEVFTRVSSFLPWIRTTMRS

Turning to `COc1ccc(C2C(C(=O)c3cccs3)=C(O)C(=O)N2c2nncs2)cc1` (stereo not drawn), the IC50 is > 50 µM (inactive). Under `COC(=O)c1sc(N2C(=O)C(O)=C(C(=O)c3ccc(C)o3)C2c2ccc(F)cc2)nc1C` (stereo not drawn) stands > 50 µM (inactive); under `O=C1CCCC(O)=C1C=NCCc1ccccc1`, > 50 µM (inactive).
